US6730792B2, “β3 adrenergic agonists” (Eli Lilly and Company, priority 2000, dated 2004)

Target: T1, human β3 adrenergic receptor (Homo sapiens, UniProt P13945)
T1 construct: expressed in transfected cells; host or cells: DXB-11 Chinese hamster ovary (CHO) cell line, stably transfected (phd expression vector)
Assay: whole cell receptor coupled c-AMP assay, human β3 receptor in CHO cells (EC50, Emax relative to isoproterenol)
Format: cell-based
Conditions: Emax ± standard error of the mean; average of at least 3 runs except where n = 1; compound tested in the isolated form listed
From the text: The genes encoding the human β1-adrenergic receptor (Frielle et al., Proc. Natl. Acad. Sci., 84:7920-7924, 1987), the human β2-adrenergic receptor (Kobika et al., Proc. Natl. Acad. Sci., 84:46-50, 1987, Emorine et al., Proc. Natl. Acad. Sci., 84:6995-6999, 1987) and the human β3 adrenergic receptor (Granneman et al., Molecular Pharmacology, 44(2):264-70, 1993) are individually subcloned into a phd expression vector (Grinnell et al., Bio/Technology, 5:1189-1192, 1987) and transfected into the DXB-11 Chinese hamster ovary (CHO) cell line by calcium phosphate precipitation methodology. The stably transfected cells are grown to 95% confluency in 95% Dulbecco's modified Eagles Medium (DMEM), 5% fetal bovine serum and 0.01% proline. Media is removed and the cells are washed with phosphate buffered (pH 7.4) saline (without magnesium and calcium). Cells are then lifted using an enzyme free cell dissociation solution (Specialty Media, Lavallette, N.J.) and pelleted by centrifugation.
Cells from each of the above cell lines are resuspended and added (20,000/well) to a 96-well plate. Cells are incubated at 37° C. with representative compounds of the invention for 20 minutes in buffer (Hank's balanced salt solution, 10 mM HEPES, 0.1% BSA, 1 mM L-ascorbic acid, 0.2% dimethyl sulfoxide, 1 mm 3-isobutyl-1-methylxanthine, pH 7.4). After halting the incubation with quench buffer (50 mM Na Acetate, 0.25% Triton X-100, pH 5.8), the c-AMP level is quantified by scintillation proximity assay (SPA) using a modification of the commercially available c-AMP kit (Amersham, Arlington Heights, Ill.) with rabbit anti-cAMP antibody (ICN Biomedicals, Aurora, Ohio) for the kit.
Sigmoidal dose response curves, from the whole cell receptor coupled c-AMP assay are fit to a four parameter logistic equation using non linear regression: y=(a−d)/(1+(Dose/c)^b)+d where a and d are responses at zero and maximal dose, b is the slope factor and c is the EC50 as previously described (DeLean et al., Am. J. Physiol., 235, E97-E102, 1978). EC50 is assessed as the concentration producing 50% of the maximum response to each agonist.
Isoproterenol is accepted in the art as a non-selective β3 agonist and is widely used as a comparator in evaluating the activity of compounds. See Trends in Pharm. Sci., 15:3, 1994. The % intrinsic activity (Emax) of representative compounds of the invention is assessed relative to isoproterenol by the compound's maximal response divided by the isoproterenol maximal response times 100.

T1 sequence (P13945 whole entry): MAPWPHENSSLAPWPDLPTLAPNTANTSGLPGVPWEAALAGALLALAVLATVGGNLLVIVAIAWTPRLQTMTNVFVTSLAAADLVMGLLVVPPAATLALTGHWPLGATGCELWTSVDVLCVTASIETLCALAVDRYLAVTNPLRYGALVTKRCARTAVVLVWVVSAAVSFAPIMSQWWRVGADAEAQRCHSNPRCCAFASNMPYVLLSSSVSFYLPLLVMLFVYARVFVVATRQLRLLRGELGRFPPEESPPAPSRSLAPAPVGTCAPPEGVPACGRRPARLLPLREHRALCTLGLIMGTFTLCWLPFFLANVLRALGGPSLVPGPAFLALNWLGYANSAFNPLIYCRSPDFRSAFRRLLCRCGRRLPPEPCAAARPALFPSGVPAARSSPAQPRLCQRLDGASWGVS

CC(C)(Cc1ccc(Oc2ncccc2C#N)cc1)NC[C@H](O)COc1ccccc1-c1ccno1 [Example 53]
Emax (%) ± SEM: 74.5 ± 12.5%

CC(C)(Cc1ccc(Oc2ncccc2C#N)cc1)NC[C@H](O)COc1ccccc1-c1ccno1.Cl [Example 54]
Emax (%) ± SEM: 66.8 ± 6.8%

CC(C)(Cc1ccc(Oc2ncccc2C#N)cc1)NC[C@H](O)COc1ccccc1-c1ccn[nH]1 [Example 55]
Emax (%) ± SEM: 37.5 n = 1%

CC(C)(Cc1ccc(Oc2ncccc2C#N)cc1)NC[C@H](O)COc1ccccc1-c1cc2ccccc2[nH]1 [Example 56]
Emax (%) ± SEM: 30.1 ± 2.1%

CC(C)(Cc1ccc(Oc2ncccc2C#N)cc1)NC[C@H](O)COc1ccccc1-c1ccncn1 [Example 57]
Emax (%) ± SEM: 41.8 ± 5.6%

CC(C)(Cc1ccc(Oc2ncccc2C#N)cc1)NC[C@H](O)COc1ccccc1N1CCCC1=O [Example 58]
Emax (%) ± SEM: 21.0 ± 3.4%

CC(C)(Cc1ccc(Oc2ccc(C(N)=O)cn2)cc1)NC[C@H](O)COc1cccc(C2=NCCN2)c1 [Example 59]
Emax (%) ± SEM: <10%

CC(C)(Cc1ccc(Oc2ncccc2C#N)cc1)NC[C@H](O)COc1ccccc1-c1ccon1.Cl [Example 60]
Emax (%) ± SEM: 70.8 ± 3.1%

CC(C)(Cc1ccc(Oc2ncccc2C#N)cc1)NC[C@H](O)COc1ccccc1-c1ccnc(N)n1 [Example 61]
Emax (%) ± SEM: 32.8 ± 4.3%

CC(C)(Cc1ccc(Oc2ncccc2C#N)cc1)NC[C@H](O)COc1ccc(-c2ccno2)cc1.O=C(O)C(F)(F)F [Example 62]
Emax (%) ± SEM: 24.7 ± 5.2%

CC(C)(Cc1ccc(Oc2ncccc2C#N)cc1)NC[C@H](O)COc1ccc(F)cc1-c1cccs1.O=C(O)C(=O)O [Example 63]
Emax (%) ± SEM: 52.6 ± 2.5%

CC(C)(Cc1ccc(Oc2ncccc2C#N)cc1)NC[C@H](O)COc1cccc(F)c1-c1cccs1.O=C(O)C(F)(F)F [Example 64]
Emax (%) ± SEM: 30.5 ± 6.8%

CC(C)(Cc1ccc(Oc2ncccc2C#N)cc1)NC[C@H](O)COc1ccccc1-c1cnco1.Cl [Example 65]
Emax (%) ± SEM: 55.9 ± 5.8%

Cn1nccc1-c1ccccc1OC[C@@H](O)CNC(C)(C)Cc1ccc(Oc2ncccc2C(N)=O)cc1 [Example 66]
Emax (%) ± SEM: 26.6 n = 1%

Cn1ccc(-c2ccccc2OC[C@@H](O)CNC(C)(C)Cc2ccc(Oc3ccc(C(N)=O)cn3)cc2)n1 [Example 67]
Emax (%) ± SEM: 77.4 n = 1%

CC(C)(Cc1ccc(Oc2ncccc2C(N)=O)cc1)NC[C@H](O)COc1ccccc1-c1cccs1 [Example 68]
Emax (%) ± SEM: 83.7 ± 3.0%

CC(C)(Cc1ccc(Oc2ncccc2C(N)=O)cc1)NC[C@H](O)COc1ccccc1-c1cccs1.Cl [Example 69]
Emax (%) ± SEM: 80.7 ± 4.4%

CC(C)(Cc1ccc(Oc2ncccc2C(N)=O)cc1)NC[C@H](O)COc1ccccc1-c1nccs1 [Example 70]
Emax (%) ± SEM: 73.8 ± 6.0%

CC(C)(Cc1ccc(Oc2ncccc2C(N)=O)cc1)NC[C@H](O)COc1ccccc1-c1nccs1.Cl [Example 71]
Emax (%) ± SEM: 65.6 ± 1.3%

CC(C)(Cc1ccc(Oc2ncccc2C(N)=O)cc1)NC[C@H](O)COc1ccccc1-c1ccno1 [Example 72]
Emax (%) ± SEM: 67.6 ± 7.1%

CC(C)(Cc1ccc(Oc2ncccc2C(N)=O)cc1)NC[C@H](O)COc1ccccc1-c1ccno1.Cl [Example 73]
Emax (%) ± SEM: 69.5 ± 0.1%

CC(C)(Cc1ccc(Oc2ncccc2C(N)=O)cc1)NC[C@H](O)COc1ccccc1-c1ccn[nH]1 [Example 74]
Emax (%) ± SEM: 36.8 n = 1%

CC(C)(Cc1ccc(Oc2ccc(C(N)=O)cn2)cc1)NC[C@H](O)COc1ccccc1-c1ccncn1 [Example 75]
Emax (%) ± SEM: 40.3 ± 3.7%

CC(C)(Cc1ccc(Oc2ncccc2C(N)=O)cc1)NC[C@H](O)COc1ccccc1-c1ccncn1 [Example 76]
Emax (%) ± SEM: 48.8 ± 5.5%

CC(C)(Cc1ccc(Oc2ncccc2C(N)=O)cc1)NC[C@H](O)COc1ccccc1N1CCCC1=O [Example 77]
Emax (%) ± SEM: 22.4 ± 4.6%

CC(C)(Cc1ccc(Oc2ncccc2C(N)=O)cc1)NC[C@H](O)COc1ccccc1N1CCOCC1.Cl.Cl [Example 78]
Emax (%) ± SEM: 30.3 ± 5.1%

CC(C)(Cc1ccc(Oc2ncccc2C(N)=O)cc1)NC[C@H](O)COc1ccccc1N1CCCCC1.Cl.Cl [Example 79]
Emax (%) ± SEM: 21.3 ± 3.3%

CC(C)(Cc1ccc(Oc2ncccc2C(N)=O)cc1)NC[C@H](O)COc1ccccc1N1CCNCC1.Cl.Cl.Cl [Example 80]
Emax (%) ± SEM: 12.3 ± 0.2%

CC(C)(Cc1ccc(Oc2ncccc2C(N)=O)cc1)NC[C@H](O)COc1ccccc1-c1nc2ccccc2o1 [Example 81]
Emax (%) ± SEM: 60.4 ± 5.1%

CC(C)(Cc1ccc(Oc2ncccc2C(N)=O)cc1)NC[C@H](O)COc1ccccc1-c1nc2ccccc2s1 [Example 82]
Emax (%) ± SEM: 45.9 ± 10.7%

CC1(C)COC(c2ccccc2OC[C@@H](O)CNC(C)(C)Cc2ccc(Oc3ncccc3C(N)=O)cc2)=N1.Cl [Example 83]
Emax (%) ± SEM: 83.5 ± 4.4%

CC(C)(Cc1ccc(Oc2ncccc2C(N)=O)cc1)NC[C@H](O)COc1ccccc1N1CCCC1 [Example 84]
Emax (%) ± SEM: 72.1 ± 6.2%

CC(C)(Cc1ccc(Oc2ncccc2C(N)=O)cc1)NC[C@H](O)COc1ccccc1-n1cccc1.Cl [Example 85]
Emax (%) ± SEM: 69.2 ± 12.1%

CC(C)(Cc1ccc(Oc2ncccc2C(N)=O)cc1)NC[C@H](O)COc1ccccc1-c1nnco1 [Example 86]
Emax (%) ± SEM: 64.6 ± 3.3%

CC(C)(Cc1ccc(Oc2ncccc2C(N)=O)cc1)NC[C@H](O)COc1cc(Cl)ccc1-c1nnco1 [Example 87]
Emax (%) ± SEM: 14.2 n = 1%

CC(C)(Cc1ccc(Oc2ncccc2C(N)=O)cc1)NC[C@H](O)COc1cccc(C2=NCCN2)c1 [Example 88]
Emax (%) ± SEM: <10%

CC(C)(Cc1ccc(Oc2ncccc2C(N)=O)cc1)NC[C@H](O)COc1ccccc1-c1ccon1.Cl [Example 89]
Emax (%) ± SEM: 71.8 ± 2.5%

CC(C)(Cc1ccc(Oc2ncccc2C(N)=O)cc1)NC[C@H](O)COc1ccccc1-c1ccnc(N)n1 [Example 90]
Emax (%) ± SEM: 31.5 ± 2.8%

CC(C)(Cc1ccc(Oc2ncccc2C(N)=O)cc1)NC[C@H](O)COc1cccc(-c2ccnc(N)n2)c1 [Example 91]
Emax (%) ± SEM: 24.9 ± 9.3%

CC(C)(Cc1ccc(Oc2ncccc2C(N)=O)cc1)NC[C@H](O)COc1cccc(-c2cc[nH]n2)c1 [Example 92]
Emax (%) ± SEM: 14.4 n = 1%

CC(C)(Cc1ccc(Oc2ncccc2C(N)=O)cc1)NC[C@H](O)COc1cccc(-c2ccno2)c1 [Example 93]
Emax (%) ± SEM: <10%

CC(C)(Cc1ccc(Oc2ncccc2C(N)=O)cc1)NC[C@H](O)COc1ccc(-c2ccno2)cc1 [Example 94]
Emax (%) ± SEM: <10%

CC(C)(Cc1ccc(Oc2ncccc2C(N)=O)cc1)NC[C@H](O)COc1ccccc1-c1ccns1.O=C(O)C(=O)O [Example 96]
Emax (%) ± SEM: 78.1 ± 6.6%

CC(C)(Cc1ccc(Oc2ncccc2C(N)=O)cc1)NC[C@H](O)COc1ccccc1-c1nncs1.O=C(O)C(=O)O [Example 97]
Emax (%) ± SEM: 52.4 ± 0.8%

CC(C)(Cc1ccc(Oc2ncccc2C(N)=O)cc1)NC[C@H](O)COc1ccccc1-c1csnn1.O=C(O)C(=O)O [Example 98]
Emax (%) ± SEM: 39.2 ± 4.0%

CC(C)(Cc1ccc(Oc2ncccc2C(N)=O)cc1)NC[C@H](O)COc1ccccc1-c1cnco1.Cl [Example 101]
Emax (%) ± SEM: 67.4 ± 4.0%

CC(C)(Cc1ccc(Oc2ncccc2C(N)=O)cc1)NC[C@H](O)COc1ccccc1-n1cccn1.Cl [Example 102]
Emax (%) ± SEM: 46.1 ± 4.5%

CC(C)(Cc1ccc(Oc2ncccc2C(N)=O)cc1)NC[C@H](O)COc1ccccc1N1CCNC1=O [Example 103]
Emax (%) ± SEM: 21.1 ± 0.1%

CC(C)(Cc1ccc(Oc2ncccc2C(N)=O)cc1)NC[C@H](O)COc1ccccc1-n1ccnc1.Cl [Example 104]
Emax (%) ± SEM: 36.0 ± 5.0%

CCOC(=O)c1cccnc1Oc1ccc(CC(C)(C)NC[C@H](O)COc2ccccc2-c2ccnn2C)cc1 [Example 105]
Emax (%) ± SEM: <10%
